# Measurements: PMC12136057, “Structural characterization of the ABC transporter DppABCDF in Escherichia coli reveals insights into dipeptide acquisition” (PLOS Biology, 2025)
# Peptide text beside a SMILES is read from it.
# Experiments:
# DppA = molecular target: T1, DppA (Escherichia coli, UniProt P23847); assay: isothermal titration calorimetry; type: binding; conditions: read-out: affinity
# T1 construct: soluble periplasmic protein, His-tagged, Ni-NTA with guanidine wash to remove endogenous peptides; expressed in E. coli
# T1 sequence (P23847 29-535): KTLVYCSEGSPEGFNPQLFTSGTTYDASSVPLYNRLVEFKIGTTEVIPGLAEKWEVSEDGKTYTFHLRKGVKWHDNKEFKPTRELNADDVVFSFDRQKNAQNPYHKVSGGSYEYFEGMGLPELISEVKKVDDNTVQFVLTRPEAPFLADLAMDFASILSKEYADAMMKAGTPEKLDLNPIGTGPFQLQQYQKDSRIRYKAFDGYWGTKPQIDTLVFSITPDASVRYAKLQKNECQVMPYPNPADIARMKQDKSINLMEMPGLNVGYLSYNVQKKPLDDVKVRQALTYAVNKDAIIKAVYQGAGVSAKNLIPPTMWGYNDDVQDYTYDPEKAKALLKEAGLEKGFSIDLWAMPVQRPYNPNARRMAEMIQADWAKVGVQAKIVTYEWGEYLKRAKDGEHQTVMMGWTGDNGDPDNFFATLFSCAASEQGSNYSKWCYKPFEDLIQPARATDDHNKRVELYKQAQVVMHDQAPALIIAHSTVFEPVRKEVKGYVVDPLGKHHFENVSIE
# [1] = test system: T2, DppABCDF full transporter; assay: malachite green phosphate ATPase assay, nanodiscs; type: biochemical, Escherichia coli; conditions: DppA added, Mg2+, pH 7.5, 37 °C; with or without Ala-Ala
# T2 construct: gene dppD; heteropentamer; structure: DppA C-terminal His-tag and Strep tag, GDN; ATPase: DppBCDF in MSP1E3D1/POPG nanodiscs plus separately purified DppA; Dipeptide transport system permease protein DppB; Dipeptide transport system permease protein DppC
# T2 sequence (P0AAG0 whole entry, one chain of several): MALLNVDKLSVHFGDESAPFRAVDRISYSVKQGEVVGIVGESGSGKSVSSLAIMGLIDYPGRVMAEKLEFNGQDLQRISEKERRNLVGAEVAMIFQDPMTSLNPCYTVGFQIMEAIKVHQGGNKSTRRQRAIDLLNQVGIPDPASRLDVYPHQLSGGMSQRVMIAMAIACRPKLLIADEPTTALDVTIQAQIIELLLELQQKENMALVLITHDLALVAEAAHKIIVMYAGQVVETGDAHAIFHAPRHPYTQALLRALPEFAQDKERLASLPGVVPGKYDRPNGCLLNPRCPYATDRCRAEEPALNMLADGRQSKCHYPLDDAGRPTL
# T2 sequence (P0AEF8 whole entry, one chain of several, further chain): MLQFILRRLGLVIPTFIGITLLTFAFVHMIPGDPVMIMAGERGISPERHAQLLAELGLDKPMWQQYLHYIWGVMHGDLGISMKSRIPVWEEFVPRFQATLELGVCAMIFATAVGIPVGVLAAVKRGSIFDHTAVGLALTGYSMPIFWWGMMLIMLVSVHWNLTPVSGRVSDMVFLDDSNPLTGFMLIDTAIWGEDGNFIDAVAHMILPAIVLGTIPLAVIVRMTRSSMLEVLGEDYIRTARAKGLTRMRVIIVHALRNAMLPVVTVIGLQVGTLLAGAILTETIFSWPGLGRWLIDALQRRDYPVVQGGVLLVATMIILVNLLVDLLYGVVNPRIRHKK
# T2 sequence (P0AEG1 whole entry, one chain of several, further chain): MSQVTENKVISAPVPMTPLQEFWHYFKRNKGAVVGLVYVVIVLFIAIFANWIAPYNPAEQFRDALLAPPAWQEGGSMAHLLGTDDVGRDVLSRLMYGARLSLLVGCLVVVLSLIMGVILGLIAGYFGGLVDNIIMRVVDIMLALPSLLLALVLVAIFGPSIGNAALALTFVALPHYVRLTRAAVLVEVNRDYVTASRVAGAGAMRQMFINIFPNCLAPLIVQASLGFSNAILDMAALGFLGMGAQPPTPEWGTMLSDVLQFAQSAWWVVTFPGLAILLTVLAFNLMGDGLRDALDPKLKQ
# T2 sequence (P37313 whole entry, one chain of several, further chain): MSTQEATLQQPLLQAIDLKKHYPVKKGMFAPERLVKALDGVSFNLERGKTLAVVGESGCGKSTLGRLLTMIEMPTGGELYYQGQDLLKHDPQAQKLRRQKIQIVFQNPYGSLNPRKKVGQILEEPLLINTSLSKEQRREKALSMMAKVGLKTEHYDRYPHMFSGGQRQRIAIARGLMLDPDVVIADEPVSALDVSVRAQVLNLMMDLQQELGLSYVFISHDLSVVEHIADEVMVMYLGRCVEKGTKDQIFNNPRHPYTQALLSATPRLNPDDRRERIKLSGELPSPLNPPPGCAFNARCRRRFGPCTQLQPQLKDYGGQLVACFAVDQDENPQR
# [2] = molecular target: T3, DppABCDF full transporter (Escherichia coli, UniProt P0AAG0+P37313, P0AAG0:E179Q/P37313:E187Q); assay: cryo-EM structure of the complex ([…] Å); type: binding; conditions: 2 mM ATPγS, 2 mM MgCl2, on ice; outward-facing; two molecules at the DppD-DppF interface
# T3 construct: gene dppD; heteropentamer; structure: DppA C-terminal His-tag and Strep tag, GDN; ATPase: DppBCDF in MSP1E3D1/POPG nanodiscs plus separately purified DppA; Dipeptide transport system permease protein DppB; Dipeptide transport system permease protein DppC
# T3 sequence (P0AAG0 whole entry E179Q, one chain of several): as the sequence (P0AAG0 whole entry, one chain of several) above, with E179Q counted along it
# T3 sequence (P37313 whole entry E187Q, one chain of several): as the sequence (P37313 whole entry, one chain of several, further chain) above, with E187Q counted along it
# T3 sequence (P0AEF8 whole entry partner, one chain of several): as the sequence (P0AEF8 whole entry, one chain of several, further chain) above
# T3 sequence (P0AEG1 whole entry partner, one chain of several): as the sequence (P0AEG1 whole entry, one chain of several, further chain) above
# [3] = molecular target: T4, DppBCDF translocator (cluster site of DppD) (Escherichia coli, UniProt P0AAG0); assay: cryo-EM structure of the complex ([…] Å); type: binding; conditions: cluster in DppD, ligands Cys284, Cys290, Cys297, Cys315; 2 mM DTT
# T4 construct: same complex as P2: heterotetramer, C-terminal Strep-tag II, expressed in E. coli, GDN detergent; with Dipeptide transport system permease protein DppB; Dipeptide transport system permease protein DppC
# T4 sequence (P0AAG0 whole entry): as the sequence (P0AAG0 whole entry, one chain of several) above
# T4 sequence (P0AEF8 whole entry partner): as the sequence (P0AEF8 whole entry, one chain of several, further chain) above
# T4 sequence (P0AEG1 whole entry partner): as the sequence (P0AEG1 whole entry, one chain of several, further chain) above
# T4 sequence (P37313 whole entry partner): as the sequence (P37313 whole entry, one chain of several, further chain) above
# [4] = molecular target: T5, DppBCDF translocator (nucleotide and cluster site of DppF) (Escherichia coli, UniProt P37313); assay: cryo-EM structure of the complex ([…] Å); type: binding; conditions: cluster in DppF, ligands Cys293, Cys299, Cys306, Cys323; 2 mM DTT
# T5 construct: heterotetramer, C-terminal Strep-tag II, expressed in E. coli, DDM then GDN detergent; with Dipeptide transport system permease protein DppB; Dipeptide transport system permease protein DppC
# T5 sequence (P37313 whole entry): as the sequence (P37313 whole entry, one chain of several, further chain) above
# T5 sequence (P0AEF8 whole entry partner): as the sequence (P0AEF8 whole entry, one chain of several, further chain) above
# T5 sequence (P0AEG1 whole entry partner): as the sequence (P0AEG1 whole entry, one chain of several, further chain) above
# T5 sequence (P0AAG0 whole entry partner): as the sequence (P0AAG0 whole entry, one chain of several) above
compound,measurement,setting,value
"C[C@H](N)C(=O)N[C@@H](C)C(=O)O [AA, Ala-Ala] (H-Ala-Ala-OH)",Kd,DppA,~13.9 nM
Nc1ncnc2c1ncn2[C@@H]1O[C@H](COP(=O)(O)OP(=O)(O)OP(=O)(O)O)[C@@H](O)[C@H]1O [ATP],ATPase activity,[1],high ATPase activity is observed when DppA was supplied in the assay
Nc1ncnc2c1ncn2[C@@H]1O[C@H](COP(=O)(O)OP(=O)(O)OP(O)(O)=S)[C@@H](O)[C@H]1O [ATPγS],cryo-EM structure of the complex (2.73 Å),[2],two ATPγS molecules bound at the interface of the two NBDs
"CC(C)C[C@H](NC(=O)CN)C(=O)O [GL, Gly-Leu]",Kd,DppA,~2200 nM
[S]12[Fe]3[S]4[Fe]1[S]1[Fe]2[S]3[Fe]41 [[4Fe-4S] cluster],cryo-EM structure of the complex (3.2 Å),[3],"The [4Fe-4S] cluster in DppD is coordinated by Cys284, Cys290, Cys297 and Cys315"
same,cryo-EM structure of the complex (3.2 Å),[4],"the [4Fe-4S] cluster in DppF is coordinated by Cys293, Cys299, Cys306 and Cys323"
